How the values were obtained:
[1] = human gut metagenome, 24 h, 2 µM
[2] = (§1) The drug is tested on Z-019 corresponding to rat gut metagenome with ENA study accession number: PRJEB37062 and ENA sample accession number: ERS12561818 for biotransformation under anaerobic condition. The drug concentrations were measured over 9 timepoints collected between 0 and 24 hours of incubation by liquid-chromatography-coupled mass spectrometry (LC–MS); details: 2 µM
[3] = as §1, with “Z-007” for “Z-019”, “ERS12561807” for “ERS12561818”; details: 2 µM
[4] = as §1, with “on Z-024” for “on Z-019”, “to pig” for “to rat”, “number: ERS12561823” for “number: ERS12561818”; details: 2 µM
[5] = human gut metagenome, 24 h, 2 µM; remark: listed apart in the source
[6] = human gut metagenome, 24 h, 2 µM; remark: listed apart in the source
[7] = human gut metagenome, 24 h, 2 µM; remark: listed apart in the source
[8] = as §1, with “on WLS-052” for “on Z-019”, “to human” for “to rat”, “number: ERS12561747” for “number: ERS12561818”; details: 2 µM
[9] = as §1, with “on WLS-069” for “on Z-019”, “to human” for “to rat”, “number: ERS12561748” for “number: ERS12561818”; details: 2 µM
[10] = as §1, with “on Z-017” for “on Z-019”, “to mouse” for “to rat”, “number: ERS12561816” for “number: ERS12561818”; details: 2 µM
[11] = human gut metagenome, 24 h, 2 µM; remark: listed apart in the source
[12] = human gut metagenome, 24 h, 2 µM; remark: listed apart in the source
[13] = human gut metagenome, 24 h, 2 µM; remark: listed apart in the source
[14] = human gut metagenome, 24 h, 2 µM; remark: listed apart in the source
[15] = as §1, with “on Z-016” for “on Z-019”, “to mouse” for “to rat”, “number: ERS12561815” for “number: ERS12561818”; details: 2 µM
[16] = human gut metagenome, 24 h, 2 µM; remark: listed apart in the source
[17] = as §1, with “on WLS-170” for “on Z-019”, “to human” for “to rat”, “number: ERS12561762” for “number: ERS12561818”; details: 2 µM
[18] = human gut metagenome, 24 h, 2 µM; remark: listed apart in the source
[19] = human gut metagenome, 24 h, 2 µM; remark: listed apart in the source
[20] = as §1, with “on WLS-073” for “on Z-019”, “to human” for “to rat”, “number: ERS12561749” for “number: ERS12561818”; details: 2 µM
Note: call rule not given here.

Compound | Bacterial Biotransformation [1] | Bacterial Biotransformation [2] | Bacterial Biotransformation [3] | Bacterial Biotransformation [4] | Bacterial Biotransformation [5] | Bacterial Biotransformation [6] | Bacterial Biotransformation [7] | Bacterial Biotransformation [8] | Bacterial Biotransformation [9] | Bacterial Biotransformation [10] | Bacterial Biotransformation [11] | Bacterial Biotransformation [12] | Bacterial Biotransformation [13] | Bacterial Biotransformation [14] | Bacterial Biotransformation [15] | Bacterial Biotransformation [16] | Bacterial Biotransformation [17] | Bacterial Biotransformation [18] | Bacterial Biotransformation [19] | Bacterial Biotransformation [20]
CCOc1ccccc1OCCN[C@H](C)Cc1ccc(OC)c(S(N)(=O)=O)c1.Cl [TAMSULOSIN HYDROCHLORIDE] | Compound NOT metabolized | Compound NOT metabolized | Compound NOT metabolized | Compound NOT metabolized | Compound NOT metabolized | Compound NOT metabolized | Compound NOT metabolized | Compound NOT metabolized | Compound NOT metabolized | Compound NOT metabolized | Compound metabolized | Compound NOT metabolized | Compound NOT metabolized | Compound NOT metabolized | Compound NOT metabolized | Compound NOT metabolized | Compound metabolized | Compound NOT metabolized | Compound NOT metabolized | Compound NOT metabolized
c1ccc2[nH]c(-c3cscn3)nc2c1 [THIABENDAZOLE] | Compound NOT metabolized | Compound NOT metabolized | Compound NOT metabolized | Compound NOT metabolized | Compound NOT metabolized | Compound NOT metabolized | Compound NOT metabolized | Compound NOT metabolized | Compound NOT metabolized | Compound NOT metabolized | Compound metabolized | Compound NOT metabolized | Compound NOT metabolized | Compound NOT metabolized | Compound NOT metabolized | Compound NOT metabolized | Compound NOT metabolized | Compound NOT metabolized | Compound NOT metabolized | Compound NOT metabolized
CCN(CC)CCNC(=O)c1cc(S(C)(=O)=O)ccc1OC [TIAPRIDE] | Compound NOT metabolized | Compound NOT metabolized | Compound NOT metabolized | Compound NOT metabolized | Compound NOT metabolized | Compound NOT metabolized | Compound NOT metabolized | Compound NOT metabolized | Compound NOT metabolized | Compound NOT metabolized | Compound metabolized | Compound NOT metabolized | Compound NOT metabolized | Compound NOT metabolized | Compound NOT metabolized | Compound NOT metabolized | Compound NOT metabolized | Compound NOT metabolized | Compound NOT metabolized | Compound NOT metabolized
CC(C)(C)NC[C@H](O)COc1nsnc1N1CCOCC1.O=C(O)/C=C\C(=O)O [TIMOLOL MALEATE] | Compound NOT metabolized | Compound NOT metabolized | Compound NOT metabolized | Compound NOT metabolized | Compound NOT metabolized | Compound NOT metabolized | Compound NOT metabolized | Compound NOT metabolized | Compound NOT metabolized | Compound NOT metabolized | Compound NOT metabolized | Compound NOT metabolized | Compound NOT metabolized | Compound NOT metabolized | Compound NOT metabolized | Compound NOT metabolized | Compound NOT metabolized | Compound NOT metabolized | Compound NOT metabolized | Compound NOT metabolized
CC[C@@]1(O)C(=O)OCc2c1cc1n(c2=O)Cc2cc3c(CN(C)C)c(O)ccc3nc2-1 [TOPOTECAN] | Compound NOT metabolized | Compound NOT metabolized | Compound NOT metabolized | Compound NOT metabolized | Compound NOT metabolized | Compound NOT metabolized | Compound NOT metabolized | Compound NOT metabolized | Compound NOT metabolized | Compound NOT metabolized | Compound NOT metabolized | Compound NOT metabolized | Compound NOT metabolized | Compound NOT metabolized | Compound NOT metabolized | Compound NOT metabolized | Compound NOT metabolized | Compound NOT metabolized | Compound NOT metabolized | Compound NOT metabolized
COc1cc(C(=O)NCc2ccc(OCCN(C)C)cc2)cc(OC)c1OC [TRIMETHOBENZAMIDE] | Compound NOT metabolized | Compound NOT metabolized | Compound NOT metabolized | Compound NOT metabolized | Compound NOT metabolized | Compound NOT metabolized | Compound NOT metabolized | Compound NOT metabolized | Compound NOT metabolized | Compound NOT metabolized | Compound NOT metabolized | Compound NOT metabolized | Compound NOT metabolized | Compound NOT metabolized | Compound NOT metabolized | Compound NOT metabolized | Compound NOT metabolized | Compound NOT metabolized | Compound NOT metabolized | Compound NOT metabolized
COc1ccc(C(CN(C)C)C2(O)CCCCC2)cc1 (stereo not given) [VENLAFAXINE] | Compound NOT metabolized | Compound NOT metabolized | Compound NOT metabolized | Compound NOT metabolized | Compound NOT metabolized | Compound NOT metabolized | Compound NOT metabolized | Compound NOT metabolized | Compound NOT metabolized | Compound NOT metabolized | Compound metabolized | Compound NOT metabolized | Compound NOT metabolized | Compound NOT metabolized | Compound NOT metabolized | Compound NOT metabolized | Compound NOT metabolized | Compound NOT metabolized | Compound NOT metabolized | Compound NOT metabolized

— ChEMBL document CHEMBL5724914, “Linking interpersonal differences in gut microbiota composition and drug biotransformation activity” (2024)
